From patent US10098913B2, “Composition of stem cells having highly expressed FAS ligand” (UNIVERSITY OF SOUTHERN CALIFORNIA, priority 2013, dated 2018) come the findings set out here.

Entries after “also recorded” stand apart in the source; their conditions may differ.

One assay deals with Fas-L. The assay is described as follows: Fas-L expression in MSCs (western blotting). Type of assay: cell-based, mice. The text has this: Bone marrow cells were flushed from the bone cavity of femurs and tibias of B6 mice (C57BL/6 J) with about 2% heat inactivated fetal bovine serum (Equitech-Bio, Kerrville, Tex., USA) in PBS, and MSCs positive for CD73, CD90, CD105, CD146, CD166, Sca-1 and SSEA-4, but negative for CD11b, CD31, CD34 and CD45, were obtained as previously described by Liu et al. “Mesenchymal stem cell-based tissue regeneration is governed by recipient T lymphocytes via IFN-γ and TNF-α” Nat Med 2011, 17:1594-1601. The entire content of this publication is incorporated herein by reference. The cells with MSC character were cultured with alpha minimum essential medium (Invitrogen) supplemented with about 20% fetal bovine serum and 2 mM L-glutamine (Invitrogen) in a humidified atmosphere of about 95% air and about 5% CO2 at about 37° C. for about 3 days before co-culture. See Oyajobi et al. “Dual effects of macrophage inflammatory protein-1alpha on osteolysis and tumor burden in the murine 5TGM1 model of myeloma bone disease” Blood 2003, 102:311-319. The entire content of this publication is incorporated herein by reference. Additionally, MSCs, which had no Fas-L, were isolated from generalized lymphoproliferative disease (gld) mice for use in comparative experiments. B6 and gld mice in the same background ([…]) were purchased from the Jackson Laboratory. […]
In general terms: A western blot detects proteins with antibodies after separation by electrophoresis.

Assay [1] concerns 5TGM1 MM cells. The assay is described as follows: 5TGM1 multiple myeloma model mice: survival and cancroid pearls. The format is in vivo. The method, then: A 5TGM1 MM model was conducted in weight-matched, 8-week-old to 10-week-old female bg-nu/nu-xid mice from the Jackson Lab (Bar Harbor, Me., USA). The use of animals for research was approved through the Institutional Ethics Committee/Institutional Review Board of the University of Southern California (protocol #10941). The mice were housed in isolator cages, and autoclaved chow and acidified water were provided ad libitum. Disseminated MM was induced through the intravenous inoculation of about 6×10^6 5TGM1 cells in about 200 μl PBS in bg-nu/nu-xid mice through the tail vein (about 6×10^6/10 g body weight). After tumor cell inoculation, multiple MM model mice were randomized to receive the injection of either MSCs (once, about 1×10^6 MSCs/10 g body weight) via the tail vein (MSC group) or […] (L-PAM; weekly, about 50 μg/10 g body weight) in the abdominal cavity (L-PAM group), as shown in FIG. 1A. See Akiyama et al. “Mesenchymal-stem-cell-induced immunoregulation involves FAS-ligand/FAS-mediated T cell apoptosis” Cell Stem Cell 2012, 10:544-555. The entire content of this publication is incorporated herein by reference. L-Phenylalanine mustard, or L-PAM, otherwise known as melphalan, is used as the standard treatment in older MM patients. See Musto P. et al. “Melphalan: old and new uses of a still master drug for multiple myeloma” Expert Opin Investig Drugs 2007, 16:1467-1487. The entire content of this publication is incorporated herein by reference. MM model mice with no treatment served as the positive control (MM group). Original nude mice with no treatment served as the negative control (Control group). The 6-week survival rates of the mice in different groups were compared. After about 4 weeks of feeding, the cancroid pearls in the neck, tail root and abdominal cavity of the mice in different groups were identified for analysis. […]

Assay [2] has as its system 5TGM1 MM cells. The assay is described as follows: Microcomputed tomography of bone density in MM model mice. Type of assay: in vivo. As to conditions: microcomputed tomography after about 4 weeks; P<0.05. The method, then: A 5TGM1 MM model was conducted in weight-matched, 8-week-old to 10-week-old female bg-nu/nu-xid mice from the Jackson Lab (Bar Harbor, Me., USA). The use of animals for research was approved through the Institutional Ethics Committee/Institutional Review Board of the University of Southern California (protocol #10941). The mice were housed in isolator cages, and autoclaved chow and acidified water were provided ad libitum. Disseminated MM was induced through the intravenous inoculation of about 6×10^6 5TGM1 cells in about 200 μl PBS in bg-nu/nu-xid mice through the tail vein (about 6×10^6/10 g body weight). […]
The cross-sectional volumetric bone mineral density was measured in right femur diaphysis of the mice in each group after about 4 weeks of feeding (for each group, n=6). […] Using two-dimensional images, a region of interest in secondary spongiosa was manually drawn near the endocortical surface, and cancellous bone morphometric parameters including the bone volume relative to the tissue volume (percentage) and the trabecular thickness (millimeters) were assessed. A trained observer blinded to the composition of the different groups and treatments received analyzed the number and surface area of radiolucent lesions.

The test system of assay [3] is 5TGM1 MM cells. The assay is described as follows: MM cell metastasis in lungs and kidneys of MM model mice. Type of assay: in vivo. As to conditions: after about 4 weeks. The method, then: A 5TGM1 MM model was conducted in weight-matched, 8-week-old to 10-week-old female bg-nu/nu-xid mice from the Jackson Lab (Bar Harbor, Me., USA). The use of animals for research was approved through the Institutional Ethics Committee/Institutional Review Board of the University of Southern California (protocol #10941). The mice were housed in isolator cages, and autoclaved chow and acidified water were provided ad libitum. Disseminated MM was induced through the intravenous inoculation of about 6×10^6 5TGM1 cells in about 200 μl PBS in bg-nu/nu-xid mice through the tail vein (about 6×10^6/10 g body weight). After tumor cell inoculation, multiple MM model mice were randomized to receive the injection of either MSCs (once, about 1×10^6 MSCs/10 g body weight) via the tail vein (MSC group) or […] (L-PAM; weekly, about 50 μg/10 g body weight) in the abdominal cavity (L-PAM group), as shown in FIG. 1A. See Akiyama et al. “Mesenchymal-stem-cell-induced immunoregulation involves FAS-ligand/FAS-mediated T cell apoptosis” Cell Stem Cell 2012, 10:544-555. The entire content of this publication is incorporated herein by reference. L-Phenylalanine mustard, or L-PAM, otherwise known as melphalan, is used as the standard treatment in older MM patients. […]

[4] abbreviates: neck, tail root and abdominal cavity, after about 4 weeks, versus MM group.

Take `CC(=O)Oc1ccccc1C(=O)O` [Aspirin, aspirin]: the “expression of Fas-L in MSCs after aspirin treatment” value with Fas-L is “enhanced expression of Fas-L in MSCs”.
With `N[C@@H](Cc1ccc(N(CCCl)CCCl)cc1)C(=O)O` [L-PAM, L-Phenylalanine mustard], in the assay with 5TGM1 MM cells [1] (MM model mice, MSCs once via tail vein, L-PAM weekly in abdominal cavity, versus untreated MM group, P<0.05), the 6-week survival rate entry was “prolonged survival compared with the MM group; also recorded: higher than the MM group”. Besides, in the assay on 5TGM1 MM cells [1] (setting [4]), the “number of cancroid pearls” value was “no significant difference” and the “size of cancroid pearls” value is listed as “smaller compared with the MM group”. Also, in the assay on 5TGM1 MM cells [2], the “bone density (BD) in lumbus and collum femoris” value is reported as “MM group was much lower than those of the MSC group, the L-PAM group”. The “metastasis rate in the kidney tissue” value in the assay on 5TGM1 MM cells [3] is “no significant difference”.
